Measured values published in the supplement of paper PMC10307832.

How the values were obtained:
Assay in all cases: relative viability (nuclei count vs DMSO), 5 days (fraction); higher = more cells survive
[1] = compound: CC[C@@H]1C(=O)N(C)c2cnc(Nc3ccc(C(=O)NC4CCN(C)CC4)cc3OC)nc2N1C1CCCC1 [BI-2536] + COc1cccc2cc(-c3nc([C@H]4CC[C@H](C(=O)O)CC4)n4ncnc(N)c34)[nH]c12 [OSI-027] (partner 0.5 µM)
Procedure, shortened: (§1)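 The day after seeding in 1536-well plates, lung cancer cell lines were treated by pin tool with a single drug, or with a fixed anchor-drug dose together with five library-drug doses (not always all listed) in √10 steps. After 5 days, a combined fix-and-stain solution (final 0.05% Triton X-100, 1% formaldehyde, 1 ug/ml Hoechst) was added. Nuclei counted on 4× images gave relative viability as treated counts over vehicle counts, reported as the median of duplicate plates.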

[2] = compound: CC[C@@H]1C(=O)N(C)c2cnc(Nc3ccc(C(=O)NC4CCN(C)CC4)cc3OC)nc2N1C1CCCC1 [BI-2536] + NC(=O)Nc1cc(-c2cccc(F)c2)sc1C(=O)N[C@H]1CCCNC1 [AZD7762] (partner 0.2 µM)
Procedure, shortened: as §1

[3] = compound: CC1CC(=O)N(C2=CN=C(N=C2N1C3CCCC3)NC4=C(C=C(C=C4)C(=O)NC5CCN(CC5)C)OC)C [NPK76-II-72-1] + CS(=O)(=O)CCNCc1ccc(-c2ccc3ncnc(Nc4ccc(OCc5cccc(F)c5)c(Cl)c4)c3c2)o1 [Lapatinib] (partner 2 µM)
Procedure, shortened: as §1

[4] = compound: CC1CC(=O)N(C2=CN=C(N=C2N1C3CCCC3)NC4=C(C=C(C=C4)C(=O)NC5CCN(CC5)C)OC)C [NPK76-II-72-1] + COc1cc2c(Oc3ccc(NC(=O)C4(C(=O)Nc5ccc(F)cc5)CC4)cc3F)ccnc2cc1OCCCN1CCOCC1 [Foretinib] (partner 0.25 µM)
Procedure, shortened: as §1

Cell Line	relative viability ([1]; first compound 0.01 µM)	relative viability ([1]; first compound 0.03162 µM)	relative viability ([1]; first compound 0.1 µM)	relative viability ([1]; first compound 0.3162 µM)	relative viability ([1]; first compound 1 µM)	relative viability ([2]; first compound 0.01 µM)	relative viability ([2]; first compound 0.03162 µM)	relative viability ([2]; first compound 0.1 µM)	relative viability ([2]; first compound 0.3162 µM)	relative viability ([2]; first compound 1 µM)	relative viability ([3]; first compound 0.01 µM)	relative viability ([3]; first compound 0.03162 µM)	relative viability ([3]; first compound 0.1 µM)	relative viability ([3]; first compound 0.3162 µM)	relative viability ([3]; first compound 1 µM)	relative viability ([4]; first compound 0.01 µM)	relative viability ([4]; first compound 0.1 µM)	relative viability ([4]; first compound 0.3162 µM)	relative viability ([4]; first compound 1 µM)	relative viability ([4]; first compound 0.03162 µM)
EPLC-272H	0.35	0.21	0.165	0.162	0.137	0.198	0.231	0.0832	0.0551	0.0884	0.905	0.968	1.01	1.04	1.11	0.552	0.69	0.852	0.729	
H3255	0.51	0.586	0.188	0.259	0.323	0.951	0.728	0.66	0.228	0.298	0.263	0.25	0.217		0.226	0.838	0.854	0.633	0.867	0.797
HARA	0.512	0.738	0.152	0.0483	0.0491	0.325	0.424	0.167	0.158	0.137	0.762	0.806	0.578	0.722	0.713	0.913	0.797	0.819	1.1	1.06
HCC-15	0.723	0.699	0.218	0.102	0.122	0.653	0.966	1.03	0.156	0.149	0.85	0.879	0.787	0.749	0.895	1.05	0.92	0.969	1.1	1.18
HCC-78	0.376	0.359	0.317	0.363	0.198	0.75	0.576	0.687	0.433	0.249		0.642	0.706		1.01	0.561	0.489	0.507	0.616	0.549
HCC-366	0.835	0.856	0.146	0.0244	0.0284	0.246	0.37	0.156	0.017	0.0177	1.04	1.08	1.01	1.14	1.08	0.929	0.906	0.944	0.951	0.953
HCC-827	0.715	0.752	0.853	0.285	0.195	0.234	0.217	0.186	0.182	0.14	0.194	0.211	0.173	0.171	0.224	1.01	0.912	1.03	1.12	1.06
HOP-62	0.803	0.724	0.526	0.268	0.181	0.505	0.653	0.235	0.15	0.101	1.08	0.958	1.02	0.911	1.22	1.06	0.993	1.15	1.08	1.27
LC-2-ad	0.903	0.743	0.247	0.283	0.33	0.872	0.657	0.166	0.17	0.142	0.916	1.02	0.976	1.04	1.06	0.908	0.94	0.809	1.08	0.948
LCLC-97TM1	0.575	0.538	0.434	0.138	0.167	0.159	0.216	0.0989	0.0787	0.0721		0.887	0.859	0.739	1.32	0.935	0.85	0.881	0.948	0.973
LK-2	0.202	0.183	0.169	0.158	0.151	0.463	0.5	0.121	0.0816	0.091	0.83	0.886	0.877	0.774	1.12	1.15	1.09	1.09	1.13	1.26
LOU-NH91	0.716	0.697	0.695	0.416	0.244	0.722	0.76	0.42	0.316	0.329	0.746	0.759	0.732	0.777	0.822	0.871	0.948	0.795	1	0.933
LU99A	0.281	0.28	0.181	0.161	0.17	0.309	0.334	0.111	0.145	0.102	0.965	0.98	1.02	0.857	1.04	0.774	0.936	0.503	0.979	0.765
LXF-289	0.844	0.687	0.181	0.0418	0.0509	1	1.14	0.61	0.0819	0.083	0.881	0.91	0.891	0.934	0.889	0.945	0.896	0.948	0.961	1.03
NCI-H23	0.551	0.508	0.16	0.107	0.107	0.236	0.236	0.127	0.12	0.088	1.03	1.27		1.12	0.985	0.955	0.954	0.99	0.973	0.88
NCI-H322M	0.52	0.52	0.37	0.411	0.305	0.61	0.53	0.496	0.394	0.406	0.515	0.636	0.597	0.612	0.557	1.06	0.976	0.923	0.978	1.09

Cell Line	relative viability ([1]; first compound 0.01 µM)	relative viability ([1]; first compound 0.03162 µM)	relative viability ([1]; first compound 0.1 µM)	relative viability ([1]; first compound 0.3162 µM)	relative viability ([1]; first compound 1 µM)	relative viability ([2]; first compound 0.01 µM)	relative viability ([2]; first compound 0.03162 µM)	relative viability ([2]; first compound 0.1 µM)	relative viability ([2]; first compound 0.3162 µM)	relative viability ([2]; first compound 1 µM)	relative viability ([3]; first compound 0.01 µM)	relative viability ([3]; first compound 0.03162 µM)	relative viability ([3]; first compound 0.1 µM)	relative viability ([3]; first compound 0.3162 µM)	relative viability ([3]; first compound 1 µM)	relative viability ([4]; first compound 0.01 µM)	relative viability ([4]; first compound 0.1 µM)	relative viability ([4]; first compound 0.3162 µM)	relative viability ([4]; first compound 1 µM)	relative viability ([4]; first compound 0.03162 µM)
NCI-H358	0.758	0.477	0.0848	0.0717	0.0809	0.64	0.408	0.266	0.153	0.177	0.444	0.443	0.549	0.453	0.477	0.575	0.915		0.769	0.695
NCI-H460	0.676	0.327	0.247	0.0156	0.0121	0.724	0.649	0.473	0.0346	0.0318	0.887	0.948	1.21	1.02	0.966	0.931	0.996	1.01	1.02	1.02
NCI-H596	0.688	0.825	0.51	0.191	0.304	1.1	1.14	1.11	0.342	0.403	1	1.14	1.07	0.914	1.09	0.907	0.824	0.819	0.842	1.01
NCI-H647	0.814	0.807	0.529	0.0918	0.0985	0.542	0.308	0.257	0.0341	0.0503	0.932	1.01		0.916	1.01	1.12	1.35	1.04	1.19	1.19
NCI-H650	0.551	0.471	0.351	0.19	0.144	0.944	1.4	0.541	0.201	0.138	1.17	0.912	0.723		0.925	1.01	0.971	0.918	1.04	1.04
NCI-H727	0.597	0.471	0.499	0.334	0.338	0.479	0.8	0.664	0.406	0.314	0.97	1.04	0.81	0.979	0.884	0.93	0.783	1.14	0.897	1.04
NCI-H838	0.386	0.444	0.393	0.146	0.149	0.905	0.803	0.831	0.634	0.634	0.951	1.08	1.05	0.971	1.09	0.956	1.1	0.949	1.09	0.99
NCI-H1355	0.421	0.389	0.206	0.176	0.189	0.697	0.776	0.751	0.269	0.185	0.922	0.933	0.967	0.931	1.02	0.929	0.926	0.852	0.982	0.932
NCI-H1395	0.617	0.64	0.313	0.306	0.386	0.382	0.348	0.319	0.351	0.325	1.1	1.11	1.09	1.03	1.07	1.02	0.954	1.1	0.95	0.959
NCI-H1437	0.857	0.925	0.398	0.172	0.149	1.01	0.892	1.03	0.141	0.163	0.769	0.884	0.743	0.716	0.818	1.22	1.15	1.11	1.25	1.27
NCI-H1651	0.686	0.758	0.272	0.0807	0.0995	0.476	0.543	0.392	0.261	0.0882	0.835	0.928	0.905	0.807	0.837	0.811	0.825	0.74	0.953	0.826
NCI-H1666	0.881	0.842	0.686	0.378	0.311	0.803	0.851	0.827	0.411	0.368	0.515	0.653	0.789	0.58	0.788	0.909	0.855	0.918	1.06	1.04
NCI-H1734	0.57	0.494	0.206	0.179	0.19	0.461	0.596	0.16	0.134	0.142	1.02	1.11	1.16	1.03	1.17	0.84	0.857	0.84	1.22	0.792
NCI-H1755	0.707	0.692	0.324	0.245	0.275	0.452	0.467	0.305	0.253	0.265	0.958	0.978	0.994	1.02	1.11	0.968	0.883	0.893	0.917	0.916
NCI-H1793	0.271	0.256	0.143	0.157	0.136	0.45	0.519	0.102	0.128	0.123	0.64	0.91	0.823	0.503	0.751	0.659	0.747	0.559	0.533	0.687
NCI-H1915	0.597	0.637	0.185	0.104	0.121	0.641	0.696	0.535	0.195	0.109	0.931	1.07	1.01	0.881	0.897	1.09	1.1	1.06	1.09	1.13
